Data published in US6949679B1, “Polyamine transport inhibitors” (Universite Laval, priority 1998, dated 2005).
Read-outs that look alike come from different tables or passages of the source.

Assays:
polyamine transporter [1] = experiment: Inhibition of [14C]spermine uptake in ZR-75-1 cells; type: cell-based, human; settings: for Ki: this work, read-out: Km or Ki, spermine transport
Method: The rate of putrescine and spermidine transport was determined in ZR-75-1 cells incubated in serum-free RPMI 1640 medium as described (Lessard, M., Zhao, C., Singh, S. M. and Poulin, R. 1995. J. Biol. Chem. 270: 1685-1694), using [^3H]putrescine (30 Ci/mol) and [^3H]spermidine (20 Ci/mol), respectively as substrates for a 20 minute-assay period. […] Uptake activity was expressed per amount of DNA as fluorometrically determined using 3,4-diaminobenzoic acid (Simard, J., Dauvois, S., Haagensen, D. E., Lėvesque, C., Mėrand, Y. and Labrie, F. 1990. Endocrinology, 126: 3223-3231). For the determination of spermidine uptake activity in CHO-K1 cells, 80% confluent cell monolayers were rinsed twice with PBS and incubated for 20 minutes at 37° C. in 400 μl of buffer A (20 mM Tris-HCl, pH 7.4; 0.42 mM CaCl2; 0.41 mM MgSO4; 103 mM NaCl; 5.7 mM KCl; 1.1 mM D-glucose) containing 5 μM [^3H]spermidine (20 Ci/mol). Cell cultures were then washed twice with 1 ml PBS containing 5.7 mM sym-norspermidine. Cells were then lysed with 200-μl aliquot of 1 N NaOH and incubated for 30 minutes at 60° C. After neutralization with 200 μl of 1 N HCl, radioactivity was determined from a 250-μl of the cell lysate by scintillation counting. Uptake activity was expressed per amount of total cellular protein as determined by the method of Bradford (Bradford, M. M. 1976. Anal. Biochem. 72: 248-254). Non-specific binding of radioactive substrate was similarly determined in parallel for both cell lines after a 15 second-incubation with 400 μl of ice-cold uptake solution.
(§1) Kinetic analysis of polyamine transport was performed by determining uptake activity in the presence of a 3 μM [^3H]putrescine or 1 μM [^3H]spermidine plus increasing concentrations of nonradioactive substrate. K[…] Ki and Vmax values were then estimated by Lineweaver-Burke analysis. For competitive inhibitors, Ki values were also estimated by measuring uptake activity in the presence of logarithmically increasing concentrations of antagonist, and using the Cheng-Prusoff equation (Cheng, Y.-C. and Prusoff, W. H. 1973. Biochem. Pharmacol. 22: 3099-3108) by iterative curve fitting for a sigmoidal curve. For mixed competitive/noncompetitive inhibition, two methods were used to calculate kinetic constants. First, the equation [drawing 2] where v, s, and i are the transport velocity, substrate concentration and inhibitor concentration respectively, was used to calculate the inhibition constants for inhibitor/carrier complex formation (Ki) and carrier/inhibitor/substrate complex formation (Ki′) (Dixon, M. and Webb, E. C. 1976. Enzymes, 3rd Ed., Academic Press, San Diego, Calif.). Alternatively, the value of Ki for a mixed competitor/non-competitor was estimated from the intersect of equations v^−1 vs i at two different substrate concentrations (Dixon, M. and Webb, E. C. 1976. Enzymes, 3rd Ed., Academic Press, San Diego, Calif.). Intracellular Accumulation
(§2) In order to evaluate the effectiveness of dimeric triamines as polyamine transport inhibitors, we synthesized N,N′-bis(3-aminopropyl),N,N′-bis(4-aminobutyl)cystamine or BABAC (structure 1, FIG. 25; FIG. 31), and its thiol form N-(3-aminopropyl),N-(4-aminobutyl)cysteamine or AAC (FIG. 31) according to Scheme 4 described above (FIG. 30), using spermidine as a precursor polyamine. The ability of BABAC and AAC to inhibit the intracellular uptake of radio-labeled putrescine and spermidine in the ZR-75-1 human breast cancer cell line was then determined according to standard published procedures (Lessard, et al. and Poulin, et al.) Briefly, ZR-75-1 cells were grown for four days in twenty-four well plates in RPMI 1640 medium supplemented with 10% fetal bovine serum.

polyamine transporter [2] = settings: ZR-75-1 cells; data annotated a (Lessard et al. 1995); read-out: Km or Ki, spermidine transport; cited from earlier work
polyamine transporter [3] = settings: ZR-75-1 cells; data annotated a (Lessard et al. 1995); read-out: Km or Ki, putrescine transport; cited from earlier work
polyamine transporter [4] = experiment: Inhibition of [3H]spermidine uptake in ZR-75-1 cells; type: cell-based, human; settings: FIG. 32, 20 μM and 3 μM substrate, respectively, read-out: Apparent Ki, spermidine uptake
Method: (§3) The rate of putrescine and spermidine transport was determined in ZR-75-1 cells incubated in serum-free RPMI 1640 medium as described (Lessard, M., Zhao, C., Singh, S. M. and Poulin, R. 1995. J. Biol. Chem. 270: 1685-1694), using [^3H]putrescine (30 Ci/mol) and [^3H]spermidine (20 Ci/mol), respectively as substrates for a 20 minute-assay period. Spermine uptake was similarly determined, using 1 μM [^14C]spermine (32 Ci/mol) as substrate. Uptake activity was expressed per amount of DNA as fluorometrically determined using 3,4-diaminobenzoic acid (Simard, J., Dauvois, S., Haagensen, D. E., Lėvesque, C., Mėrand, Y. and Labrie, F. 1990. Endocrinology, 126: 3223-3231). For the determination of spermidine uptake activity in CHO-K1 cells, 80% confluent cell monolayers were rinsed twice with PBS and incubated for 20 minutes at 37° C. in 400 μl of buffer A (20 mM Tris-HCl, pH 7.4; 0.42 mM CaCl2; 0.41 mM MgSO4; 103 mM NaCl; 5.7 mM KCl; 1.1 mM D-glucose) containing 5 μM [^3H]spermidine (20 Ci/mol). Cell cultures were then washed twice with 1 ml PBS containing 5.7 mM sym-norspermidine. Cells were then lysed with 200-μl aliquot of 1 N NaOH and incubated for 30 minutes at 60° C. After neutralization with 200 μl of 1 N HCl, radioactivity was determined from a 250-μl of the cell lysate by scintillation counting. Uptake activity was expressed per amount of total cellular protein as determined by the method of Bradford (Bradford, M. M. 1976. Anal. Biochem. 72: 248-254). Non-specific binding of radioactive substrate was similarly determined in parallel for both cell lines after a 15 second-incubation with 400 μl of ice-cold uptake solution.
as §1, with “Alternatively, the value of Ki for a mixed competitor/non-competitor was estimated from the intersect of equations v^−1 vs i at two different substrate concentrations (Dixon, M. and Webb, E. C. 1976. Enzymes, 3rd Ed., Academic Press, San Diego, Calif.). Intracellular Accumulation” left out
as §2

polyamine transporter [5] = experiment: Inhibition of [3H]putrescine uptake in ZR-75-1 cells; type: cell-based, human; settings: for Ki: ZR-75-1 cells
Method: as §3, §1, §2

[6] = MESC: amino group neighboring the amide linkage; cited from earlier work
ZR-75-1 cells [7] = experiment: Effect on ZR-75-1 cell proliferation (11 days, DNA content); type: cell-based, human; settings: 50 μM
Method: (§4) For growth studies, ZR-75-1 cells were cultured in MEZR medium or in phenol red-free RPMI 1640 supplemented with 2 mM L-glutamine, 1 mM sodium pyruvate, 15 mM Hepes, antibiotics, 1 nM 17β-estradiol, 0.5 μg of bovine insulin per ml and 5% (v/v) charcoal-treated fetal bovine serum (SD medium), as indicated in the text. When polyamines or polyamine analogs were added to serum-containing media, 1 mM aminoguanidine was added to inhibit bovine serum amine oxidase (BSAO) activity (Morgan, D. M. L. 1989, in The Physiology of Polyamines (Bachrach, U., and Heimer, Y. M. eds) Vol. I, pp. 203-229, CRC Press, Boca Raton). The effect of the transport inhibitors on cell growth was measured by incubating ZR-75-1 cells for 11 days in medium supplemented with antagonist, polyamines and/or 1 mM DFMO as indicated, followed by colorimetric determination of DNA content with 3,4-diaminobenzoic acid (Simard, J., Dauvois, S., Haagensen, D. E., Lėvesque C., Mėrand, Y. and Labriė, F. 1990. Endocrinology 126: 3223-3231). Medium was changed every other day in these experiments because of the slow reaction of the compound with an unknown component present in the IMEM and RPMI 1640 medium formulation.
The biocompatibility of DESC, MESC, and DEASC was thus evaluated during a long-term (11-day) incubation with ZR-75-1 cells grown in RPMI 1640 containing 10% (v/v) FBS in the absence and presence of 1 mM aminoguanidine. […] Weak growth inhibition caused by the mixed MESC-cysteamine disulfide, however, apparently involved degradation by a copper amine oxidase.

in vitro = settings: human, ZR-75-1 cells
From the text: FIG. 34 represents the relative cytotoxicity of sym-norspermidine (NSpd), BABAC and TADAX in ZR-75-1 human breast cancer cells. Data are the mean±SD of triplicate determinations from a representative experiment.

polyamine transporter [8] = experiment: Inhibition of [14C]spermine uptake in ZR-75-1 cells; type: cell-based, human; settings: 3μM substrate (Example 11), read-out: Ki, [14C]spermine transport
ZR-75-1 cells [9] = experiment: Intracellular accumulation of inhibitor and polyamine contents (HPLC) in ZR-75-1 cells; type: cell-based, human; settings: ZR-75-1 cells, 6-hour incubation, HPLC of cell extracts
ZR-75-1 cells [10] = experiment: Reversal of DFMO-induced growth inhibition by exogenous spermidine; type: cell-based, human; settings: 1 mM DFMO
Method: as §4, with “3223-3231).” for “3223-3231). Medium was changed every other day in these experiments because of the slow reaction of the compound with an unknown component present in the IMEM and RPMI 1640 medium formulation.”
This possibility was assessed by comparing the ability of DESC to prevent the reversal of DFMO-induced growth inhibition by increasing concentrations of exogenous spermidine.

polyamine transporter [11] = settings: ZR-75-1 cells; data annotated a (Lessard et al. 1995); read-out: Km or Ki, spermine transport; cited from earlier work
[12] = Stability in buffered aqueous solution; type: physicochemical; settings: buffered at pH=7.0

**Q.** Which Ki (polyamine transporter [1]) does the source give for `NCCCCN` [Putrescine, 1,4-butane-diamine] here?
**A.** The Ki was 230 ± 130 nM.

**Q.** And the Ki (polyamine transporter [2])?
**A.** The Ki was 125000 ± 29000 nM.

**Q.** What about the Ki (polyamine transporter [3]) of the same compound?
**A.** Its Ki is 3700 ± 400 nM.

**Q.** With `NCCCNCCCCNCCCN` [Spermine, N,N′-bis-[3-aminopropyl]-1,4-butanediamine, reference compound] as the compound, how does the Ki (polyamine transporter [4]) read?
**A.** The Ki was 400 nM.

**Q.** What about the Km (polyamine transporter [1]; 3μM substrate (Example 11), read-out: Apparent Km, spermine transport) of the same compound?
**A.** Its Km is 0.6 µM.

**Q.** And the Ki (polyamine transporter [1])?
**A.** Its Ki is 200 ± 60 nM.

**Q.** What about the Ki (polyamine transporter [5]; FIG. 32, 20 μM and 3 μM substrate, respectively, read-out: Apparent Ki, putrescine uptake) of the same compound?
**A.** The Ki was 74.5 nM.

**Q.** What about the “pKa of secondary amino group of the spermine head” value [6] of the same compound?
**A.** The value was 8.9-9.8.

**Q.** And the “Effect on cell growth” value (ZR-75-1 cells [7]; with or without 1 mM aminoguanidine)?
**A.** The value was “acutely cytotoxic”.

**Q.** And the Ki (polyamine transporter [3])?
**A.** Its Ki is 330 ± 20 nM.

**Q.** What does the source list for `NCCCN(CCCN)Cc1ccc(CN(CCCN)CCCN)cc1` [TADAX, N,N,N′,N′-tetrakis(3-aminopropyl)-p-xylylenediamine]?
**A.** IC50 (in vitro): > 500000 nM; Ki (polyamine transporter [8]): 1500 nM; Accumulation of the compound in cells (ZR-75-1 cells [9]): no detectable accumulation

**Q.** Which “Spermidine concentration completely reversing DFMO-induced growth inhibition” value (ZR-75-1 cells [10]; 11 days) does the source give for `NCCCCNCCCN` [Spermidine, N-3[aminopropyl]-1,4-diaminobutane] here?
**A.** Its value is 0.3 µM.

**Q.** What about the activity at 0.1 µM (ZR-75-1 cells [10]; Homo sapiens, ZR-75-1, 0.1 μM spermidine, read-out: Growth of DFMO-treated cells restored, % of control value) of the same compound?
**A.** Its activity at 0.1 µM is 78%.

**Q.** What about the Ki (polyamine transporter [2]) of the same compound?
**A.** Its Ki is 490 ± 150 nM.

**Q.** What about the Ki (polyamine transporter [11]) of the same compound?
**A.** The Ki was 370 ± 90 nM.

**Q.** What about the Ki (polyamine transporter [3]) of the same compound?
**A.** The Ki was 230 ± 50 nM.

**Q.** What does the source list for `NCCCNCCCC(NCCCN)C(=O)NCCSSCCN` (stereo not shown) [DEASC, N-[2,2′-dithio(ethyl,1-aminoethyl)]spermine-5-carboxamide]?
**A.** Ki for [14C]spermine transport, fold higher than that of DESC (polyamine transporter [1]; FIG. 2): about 5 fold; Ki (polyamine transporter [1]): 16000 ± 3000 nM; Mode of inhibition of [3H]putrescine uptake (polyamine transporter [5]; Lineweaver-Burke, DESC up to 100 μM, MESC up to 200 μM): mixed competitive/non-competitive type; Ki (polyamine transporter [5]; mixed competitive/non-competitive model, read-out: Ki′ (carrier/inhibitor/putrescine complex formation)): 4100 nM; Ki (polyamine transporter [5]; this work, DEASC: Ki of mixed competitive/non-competitive model, read-out: Ki, putrescine transport): 5300 ± 600 nM; Inhibition of cell proliferation (ZR-75-1 cells [7]; completely prevented by aminoguanidine): 20%; Stability in aqueous solutions [12]: stable for months
